We go through 88 molecules from a melting point compilation (Tetko et al.; mined from patent text by program, amines drawn as free bases though some values may be those of a salt).

In turn, `O=C(NC(=O)c1ccco1)C(=O)Oc1ccc([N+](=O)[O-])cc1` came in with a melting point of 115 °C. Under `Cc1nc(Cl)c(C)c(Cl)n1` stands 46 to 47 °C; under `Cc1c(Br)c2c(c(C)c1NC(=O)OC(C)(C)C)C(=O)C(C)(C)O2`, 131 to 132 °C; under `CNc1ccc(C=Cc2ccc(N)cc2)cc1`, 144 to 145 °C. As for `CCOC(=O)c1ccc(OCCCCCCCc2cc(C)no2)cc1`, the figure is 60 to 61 °C; as for `CCCCCCCCCCCCCCCC1CCCC(c2ccc(O)cc2)(c2ccc(O)cc2)C1` (stereo not drawn), 104 °C; as for `Cc1ccc2c(c1)C=Cn1c(nnc1S(C)=O)C2` (stereo not drawn), 158 to 159 °C. Under `CN(C)C(=O)C(CCO)C1(C)OCCc2c1[nH]c1ccccc21` (stereo not drawn) stands 158 to 160 °C.

The molecule `CSc1nc(Cl)c(C#N)c(Cl)n1` yielded a melting point of 107 °C. Molecule `O=C(c1ccccc1)N1CCC(O)(c2ccccc2Cc2ccccc2)C1` (stereo not drawn) gave a melting point of 113 to 116 °C. As for `COc1ccc(CN2C(=O)CC2C(=O)O)c(OC)c1` (stereo not drawn), the melting point lay within 124 to 125 °C. As for `O=C(NNC(=O)C(F)(F)C(O)(Cn1cncn1)c1ccc(F)cc1F)c1ccc(F)cc1` (stereo not drawn), the figure is 127 to 130 °C; as for `CC(C)(Cc1cc2c(OCc3ccc4ccccc4n3)cccc2n1Cc1ccc(Cl)cc1)C(=O)O`, 158 to 160 °C. Turning to `Cc1ccccc1-c1cc(F)cc2c1NC(CN)CO2` (stereo not drawn), the melting point stood at 78 °C. As for `CC1C(=O)c2c(cc(OCC(=O)O)c(Cl)c2Cl)C1C` (stereo not drawn), the figure is 174 to 176 °C; as for `N=C(N)Nc1ccc(S(=O)(=O)N2CCOCC2)cc1`, 102 to 105 °C. As for `CCc1nc(N)nc(N)c1CCC(C)c1cccc(C(F)(F)F)c1` (stereo not drawn), the figure is 93 to 96 °C; as for `O=[N+]([O-])c1cc(CBr)n(CCBr)n1`, 95 to 97 °C; as for `CC=Cc1cccc2c1OC(c1ccccc1)CC2=O` (stereo not drawn), below 50 °C. Under `COc1ccc2cc([C@H](C)C(=O)NOCC(=O)OC(C)(C)C)ccc2c1` stands 82 to 84 °C; under `CC(C)(C)OC(=O)NCC12CN(c3cc4c(cc3F)c(=O)c(C(=O)O)cn4C3CC3)CC1CCO2` (stereo not drawn), 235 to 237 °C. For `CCc1c(C)[nH]c(=O)c(CC)c1Oc1cc(C)cc(C)c1`, the melting point was 180 °C.

With `CC(O)c1ccc2c(c1)CCC(=O)N2` (stereo not drawn), the melting point is 174 °C. As for `COc1cc([N+](=O)[O-])ccc1S(=O)(=O)n1c(=O)n(C2CCCCC2)c2cc(Cl)ccc21`, the figure is 185 °C; as for `Cc1cn(C2CC(N=[N+]=[N-])C(CO)O2)c(=O)nc1N` (stereo not drawn), 85 to 88 °C. Under `O=C(O)C1CCc2c(c3ccccc3n2C(=O)c2cccc(Cl)c2)C1` (stereo not drawn) stands 179 to 181 °C; under `CCNC(=S)Nc1nccs1`, 135 to 136 °C; under `C[Si](C)(C)CNc1ccc([N+](=O)[O-])cc1`, 120 °C.

For `N=C(N)c1ccc(NC(=O)N(c2cccc(C(=N)N)c2)C2CCCCCC2)cc1`, the melting point fell in the range of 204 to 206 °C. As for `Cc1cccc(NC(=O)Nc2ccc(-c3c(C(N)=O)[nH]c4ccccc34)cc2)c1`, the figure is 140 to 142 °C. Under `C=C(C(=O)OCC)c1cccc(-c2cc3c(cc2C)C(C)(C)CCC3(C)C)c1` stands 70 to 72 °C; under `CC(CS)C(=O)N(CC(=O)O)C1CCCCC1` (stereo not drawn), 158 to 160 °C.

Turning to `CCOc1ccc(C2=NN(C3CCN(S(C)(=O)=O)CC3)C(=O)[C@@H]3CC=CC[C@H]23)cc1OCC`, the melting point lay within 99 to 102 °C. Under `CN(Cc1nc(-c2cc(C(C)(C)C)c(O)c(C(C)(C)C)c2)cn1COCC[Si](C)(C)C)c1ccc([N+](=O)[O-])cc1` stands 149 to 151 °C; under `Cc1c(C)c2c(c(C)c1N)CC(C)(CN1CCCCC1)O2` (stereo not drawn), 60 to 61 °C; under `Cc1ccc(OCC#CI)cn1`, 155 to 157 °C. As for `O=C(O)c1ccc(OCCn2ncc3nc(C(=O)NCc4cccc(OCCOc5nc[nH]n5)c4)[nH]c(=O)c32)cc1`, the melting point lay within 176 to 178 °C. With `OCCNc1nc(N2CCNCC2)nc2c1SCCC2`, the melting point lay in the range of 116 to 120 °C. As for `CC12CCc3cc(C#N)ccc3C1=NNC(=O)C2` (stereo not drawn), the figure is above 300 °C; as for `COC(=O)c1cc(OCc2ccc(OCc3nc(-c4ccccc4)oc3C)c(OC)c2)nn1-c1ccccc1`, 143 to 144 °C. As to `CC(C)C(=O)c1c(C2CC2)nn2ccccc12`, the melting point was in the range of 108 to 109 °C. As for `C#CCOC(=O)c1cc(Br)c(O)c(OC)c1`, the figure is 121 to 122 °C; as for `CC(C)(O)Cn1cnc2c1c1ccccc1n1nnnc21`, 246 to 247 °C; as for `O=C1c2cc(Br)ccc2-n2c1nc1ccccc1c2=O`, 288 to 290 °C.

In turn, `CC(=O)Oc1ccc(-n2cc(C(=O)OC3CCc4ccccc43)c(=O)cc2-c2cc3ccccc3s2)cc1` (stereo not drawn) gave a melting point of 234 to 236 °C. As for `COC(=O)c1ccc2c(c(C)nn2C)c1C(=O)NC(C)(C(N)=O)C(C)C` (stereo not drawn), the figure is 221 to 222 °C.

The molecule `O=C1c2c(Cl)cccc2-n2cnc(-c3nc(C4CC4)no3)c2[C@@H]2CCN12` returned a melting point of 140 to 142 °C.

For the molecule `CCCCCCCCCCCCCCCC(=O)N[C@@H](CSC[C@H](O)[C@H](O)CO)C(=O)O`, the melting point lay within 76 to 76.5 °C. Consider `CN1CC2c3cccn3Cc3ccc(Cl)cc3N2C(=O)C1=O` (stereo not drawn), for which the melting point amounted to 203 °C.

`O=C(NN1CCCCC1)c1nc(-c2ccc(Cl)cc2Cl)c(-c2ccc(Cl)cc2)o1` registered a melting point of 165 °C.

In turn, `N#Cc1ccc(N2CCC(CO)CC2)c2ccccc12` came in with a melting point of 135 to 136 °C. Under `OC(CCCl)COc1ccc(Br)cc1` (stereo not drawn) stands 75 to 78 °C. As for `Cc1oc(-c2ccccc2)nc1C(=O)COc1ccc(C#N)cc1`, the figure is 202 to 203 °C; as for `CSC(=NC(=O)c1ccccc1)Nc1ccccc1`, 78 to 94 °C. As for `CCOC(=O)[C@H]1O[C@@H]1C(=O)N[C@@H](CC(C)C)C(=O)c1ccccc1`, the figure is 118 to 119 °C; as for `CNCC(=O)N[C@@H](CCCNC(=N)N)C(=O)N[C@@H](CCCNC(=N)N)C(=O)N[C@@H](C)P(=O)(O)O`, 220 °C; as for `COCOc1ccc(-c2ccc(C=C3SC(=O)NC3=O)cc2)cc1C12CC3CC(CC(C3)C1)C2`, 253 to 254 °C. The molecule `COCOCCCOn1cnc2cnc(N)nc21` registered a melting point of 80 to 81 °C. Regarding `CC1CN(C(=O)COc2cc(-c3ccccc3)nc3ccccc23)CC(C)O1` (stereo not drawn), the melting point is 117 °C. Under `O=c1[nH]c2ccccc2c(=O)n1CCCN1CCC(OC(c2ccccc2)c2ccccc2)CC1` stands 173 to 175 °C; under `COc1ccc(C(C(=O)OC(C)(C)C)N(C(=O)CNC(=O)Nc2cccc(C)c2)c2ccccc2)cc1` (racemic), 206 °C. Under `COc1cccc(Cc2cc3cccc(-c4cccc(C(=O)O)c4)c3o2)c1` stands 127 to 129 °C; under `O=C(O)COc1ccc(SCc2cccc(OCc3ccc(C(F)(F)F)cc3)c2)c2c1CCCO2`, 113 to 115 °C; under `COc1ccc(C(=O)Nc2ccc(N3CCC(NC[C@H](O)COc4cccc5[nH]c6ccccc6c45)CC3)cc2)cc1OC`, 183 to 191 °C. As for `C=CCN1CC(c2ccc([N+](=O)[O-])cc2F)CCS1(=O)=O` (stereo not drawn), the figure is 121 °C. For `CS(=O)(=O)NCCCn1cnc(-c2ccc(F)cc2)c1-c1ccncc1`, the melting point lay within 186 to 187 °C.

For `Cc1oc(-c2ccccc2)nc1COc1ccc(Cc2nc(CCC(=O)O)c(-c3ccccc3)s2)cc1`, the melting point was 119 to 120 °C. Under `CCCCCCc1ccc(C(=O)Oc2ccc(C(=O)O)cc2)cc1` stands 162 °C; under `Clc1cccnc1N1CCN(c2nc3ccc(Br)cc3[nH]2)CC1`, 207 to 208 °C; under `CCCCCC(CC(=O)Nc1cc(CO)ccc1C(C)(C)C)c1ccc(OC)cc1OC` (stereo not drawn), 125 to 126 °C. Under `CC(OC1CCCCO1)C(O)(Cn1cncn1)c1ccc(F)cc1F` (stereo not drawn) stands 93 to 95 °C; under `CCOC(=O)Cc1c(C(=O)OCC)cnc2c(NC(=O)c3c(Cl)cccc3Cl)cccc12`, 159 °C. As for `COc1cc(OC)n2nc(S(=O)(=O)Nc3c(Cl)cccc3Cl)nc2n1`, the figure is 232 to 234 °C; as for `CCOC(=O)/C=C(C)/C=C/C=C(\C)C1=Cc2cc(C(C)(C)C)cc(C)c2OC1`, 73 °C. Molecule `COC(=O)c1c(-c2cccs2)c2cc(OCc3ccccc3)ccc2c(=O)n1CC(C)C` displayed a melting point of 143 to 144 °C. As for `NC(=O)CNC(=O)c1cccc(-c2cccc3oc(Cc4ccc(F)c(Cl)c4)cc23)c1`, the figure is 155 to 156 °C; as for `COc1ccc2c3c(c4cc(OC)c(OC)cc4c2c1)CC1CCCCN1C3` (stereo not drawn), 193 to 195 °C. Under `Cn1c(C(F)(F)F)cc(=O)n(-c2ccc3snc(C(Cl)Br)c3c2)c1=O` (stereo not drawn) stands 93 to 96 °C; under `CC1CN(C)c2c3c(nc4cccc(c24)O1)CCCC3` (stereo not drawn), 125 to 126 °C; under `CCOC(=O)c1ccc(NCc2ccc(OC)cc2)cc1`, 128 to 130 °C. Take `COCCCNS(=O)(=O)NC(=O)OC/C=C/c1ccc(OCCOC)cc1Oc1ncc(C(F)(F)F)cc1Cl`: the melting point was in the range of 98 to 100 °C. As for `CN1CC(CO)C2c3cccc4c3c(cn4S(=O)(=O)c3ccccc3)CC21` (stereo not drawn), the figure is 124 to 127 °C; as for `Cc1nnc(-c2ccc3c(=O)n(CC(C)C)c(CN)c(-c4ccccc4)c3c2)o1`, 179 to 181 °C. Under `Cc1cc(C)nc(NC(=O)NS(=O)(=O)c2csnc2Cl)n1` stands 136 to 140 °C; under `O=c1ccnc(NCCCN(Cc2cccc(Cl)c2)c2ccccn2)[nH]1`, 74 to 78 °C; under `CCN1OCC(=Cc2cc(C(C)(C)C)c(O)c(C(C)(C)C)c2)C1=O`, 189 to 191 °C.

Molecule `Cc1c(C)c2c(c(C)c1Br)OCC2c1ccc(C(C)C)cc1` (stereo not drawn) yielded a melting point of 56 to 57 °C. As for `Cc1nc(N2CCCC2)nc2c1c(=O)c(C(=O)O)cn2C1CC1`, the figure is 253 °C.

What is called melting point is the temperature of the solid-liquid transition.
